Results published in patent publication US20130115256A1, “METHODS FOR TREATING OR PREVENTING VASCULAR GRAFT FAILURE” (priority 2010, published 2013).

Key:
[1] = tested on: immortalized human pleural mesothelial cells (ATCC CRL-9444); assay: TNF-α-induced IL-6 expression in mesothelial cells (ELISA); assay type: cell-based
From the text: In order to examine the efficacy of MMI-0100 ([…]; SEQ ID NO: 1) in inhibiting the production of inflammatory cytokines, an inflammatory response was triggered in vitro by applying TNF-α to immortalized human pleural mesothelial cells (ATCC CRL-9444). A mesothelial cell is a cell type that forms a monolayer of specialized pavement-like cells (mesothelium) that lines the body's abdominal cavities and internal organs. The primary function of this layer, the mesothelium, is to provide a slippery, non-adhesive, and protective surface. Mesothelial cells also are involved in transport of fluid and cells across the peritoneal (abdominal) cavities, antigen presentation, inflammation, tissue repair, coagulation, and tumor cell adhesion. It is well known that mesothelial cells play important role in the peritoneal inflammatory response. In response to bacterial products and macrophage-derived inflammatory cytokines (e.g., TNF-α), mesothelial cells produce Interleukin-1 (IL-1), Interleukin-6 (IL-6), and Interleukin-8 (IL-8), thus amplifying the inflammatory signals and recruiting leukocytes into the infected abdominal cavity.
Expression of inflammatory cytokines was induced by applying 1 or 10 ng/ml of TNF-α to cultured mesothelial cells. Briefly, immortalized human pleural mesothelial cells (ATCC CRL-9444) were grown in Medium199 with Earle's BSS, 0.75 mM L-glutamine (Mediatech Inc., Manassas, Va.), 1.25 g/l sodium bicarbonate (Sigma), 3.3 nM epidermal growth factor (EGF) (MBL International, Woburn, Mass.), 40 nM hydrocortisone (Sigma), 870 nM insulin (MBL International), 20 mM HEPES (Sigma), trace elements mixture B (Mediatech Inc., Waltham, Mass.), 10% fetal bovine serum (FBS) (Hyclone), and 1% penicillin/streptomycin (Mediatech Inc., Waltham, Mass.). […] Human mesothelial cells were treated with two different concentrations (1 and 10 ng/mL) of TNF-α for 2, 6, 12, and 24 hours (data not shown). […] Without TNF-α stimulation, mesothelial cells made negligible amounts of IL-6. […] In subsequent experiments designed to determine whether the MMI-0100 peptide ([…]; SEQ ID NO: 1) could reduce TNF-α induced IL-6 expression, both 1 and 10 ng/mL of TNF-α were selected as stimuli. 10 ng/mL of TNF-α is regarded as more physiologically relevant for mesothelial cells.
Prior to cytokine and/or inhibitor treatment, cells were allowed to acclimate in serum-free media consisting of only Medium 199 with Earle's BSS, 0.75 mM L-glutamine, 1.25 g/l sodium bicarbonate, 20 mM HEPES, trace elements mixture B (Mediatech Inc., Waltham, Mass.), and 1% penicillin/streptomycin (Mediatech Inc., Waltham, Mass.) for 24 hours. After the adapting period, cytokines (TNF-α and IL-1β) with or without MMI-0100 peptide or Rottlerin (Tocris Bioscience, Ellisville, Mo.; IC50=5 μM) were added to the media in order to compare the efficacy of MMI-0100 ([…]; SEQ ID NO: 1) with that of Rottlerin. Specifically, serum-starved mesothelial cells were treated with two different concentrations (1000 μM or 3000 μM) of MMI-0100 ([…] (SEQ ID NO: 1)) at three different time points (6 hours, 12 hours, and 24 hours) using two different concentrations of TNF-α (1 ng/ml or 10 ng/ml) or using 1 ng/ml of IL-1β. Average concentration of IL-6 (pg/ml per 10^5 cells) at each time was determined by cytokine-specific ELISA.

[2] = tested on: human saphenous vein (HSV); assay: Human saphenous vein organ culture model of intimal hyperplasia
Protocol: Dc-identified, discarded segments of human saphenous vein (HSV) were collected from consented patients undergoing coronary artery or peripheral vascular bypass surgeries. HSV segments were stored in a saline solution until the end of the surgical procedure, at which time they were placed in cold transplant harvest buffer (100 mM potassium lactobionate, 25 mM KH2PO4, 5 mM MgSO4, 30 mM Raffinose, 5 mM Adenosine, 3 mM Glutathione, 1 mM Allopurinol, 50 g/L Hydroxyethyl starch, pH 7.4). The vessels were used within 24 hours of harvest. Using sterile technique, HSV segments were transferred to a 60-mm Petri dish under a sterile hood. The edges (0.5 mm) of each segment were removed with a blade and excess adventitial tissue and fat removed with minimal manipulation. […]
After viability was determined in the muscle bath, additional rings were cut and placed in 8-well chamber slides and maintained in RPMI 1640 medium supplemented with 30% FBS, 1% L-glutamine and 1% penicillin/streptomycin for 14 days at 37° C. in an atmosphere of 5% CO2 in air. […]
After 14 days of organ culture, vein segments were fixed in 0.5 mL of 10% formalin at 37° C. for 30 minutes and embedded in paraffin for sectioning. […] Intimal and medial thickening was measured for each section at 5× magnification with the microscope's computerized image analysis system. […]

YARAAARQARAKALARQLGVAA [MMI-0100] was tested, and the IL-6 expression ([1]; 1 ng/mL TNF-α, MMI-0100 1000 μM or 3000 μM) was “reduced IL-6 expression to the levels at or below the untreated baseline”, the IL-6 expression ([1]; 10 ng/mL TNF-α, 3000 μM MMI-0100, every time point (6, 12, 24 hours)) was “reduced IL-6 expression to the levels of the untreated baseline” and the IL-6 expression ([1]; 10 ng/mL TNF-α, MMI-0100) was “still effective”. For the same sequence, the mean intimal thickness ([2]; 10 μM MMI-0100, 14 days culture, 30% FBS) was 14 μm and the “intima:media (I:M) ratio” value ([2]; 100 μM MMI-0100, 14 days, 30% serum) was “greater reduction”.
